{"source": "patent US8993304B2", "about": "“Chloramphenicol resistance selection in Bacillus licheniformis” (Novozymes A/S, priority 2006, dated 2015)", "type_in_all_cases": "cell-based, Bacillus licheniformis", "key": {"ATCC14580": {"tested_on": "ATCC14580", "assay": "Test of chloramphenicol resistance, growth in liquid TY+glucose culture", "details": "30° C.", "experimental": "(§1) Strains PP1897-3, SJ8071 (=PP1897-3 delta cat), ATCC14580, and SJ8344 (=ATCC14580 delta cat) were propagated in 10 ml TY (WO 94/14968, p16) supplemented with 0.5% glucose at 30° C. overnight, with shaking. 50 microliter aliquots were used to inoculate further 10 ml TY+glucose cultures, supplemented with chloramphenicol (cam) to concentrations: 1 microgram/ml, 2 microgram/ml, 3 microgram/ml, 6 microgram/ml, 9 microgram/ml, or 12 microtram/ml, and incubation with shaking continued at 30° C. Growth was scored by visual inspection of turbidity after approximately 7 hours (table 1), and again after overnight incubation (table 2)."}, "PP1897-3": {"tested_on": "PP1897-3", "assay": "Test of chloramphenicol resistance, growth in liquid TY+glucose culture", "details": "30° C.", "experimental": "as §1"}, "[1]": {"tested_on": "SJ8071 (=PP1897-3 delta cat)", "assay": "Test of chloramphenicol resistance, growth in liquid TY+glucose culture", "details": "30° C.", "experimental": "as §1"}, "[2]": {"tested_on": "SJ8344 (=ATCC14580 delta cat)", "assay": "Test of chloramphenicol resistance, growth in liquid TY+glucose culture", "details": "30° C.", "experimental": "as §1"}, "SJ8071": {"tested_on": "SJ8071", "assay": "Growth on reisolation onto LPBSG plates with chloramphenicol", "details": "SJ8071 deletion strain; LPBSG plates with 10 mikrogram/ml chloramphenicol", "source_text": "(§4) 2 erythromycin sensitive and chloramphenicol sensitive strains were kept as SJ8071 (from donor SJ8039) and SJ8072 (from donor SJ8041)."}, "SJ8072": {"tested_on": "SJ8072", "assay": "Growth on reisolation onto LPBSG plates with chloramphenicol", "details": "SJ8072 deletion strain; LPBSG plates with 10 mikrogram/ml chloramphenicol", "source_text": "as §4"}, "control strain": {"tested_on": "control strain", "assay": "Growth on reisolation onto LPBSG plates with chloramphenicol", "details": "LPBSG plates with 10 mikrogram/ml chloramphenicol", "source_text": "as §4"}, "[3]": {"tested_on": "cat-deleted recipient strains", "assay": "Transconjugant selection on chloramphenicol plates", "details": "cat-deleted recipients (SJ8071, SJ8344); donor SJ8000; chloramphenicol 6 microgram/ml; 30° C. overnight", "experimental": "(§2) B. licheniformis strains PP1897-3, the cat-deleted derivative SJ8071, strain ATCC14580, and the cat-deleted derivative SJ8344 were used as recipients in conjugations with donor strain SJ8000, essentially as described before.\n(§3) For each donor/recipient combination, donor and recipient colonies were scraped off overnight plates and mixed in a small volume of liquid TY medium, and equal volumes from this mixture was plated on each of two LBPGS plates with D-alanine. Following 6 hours incubation at 30° C., one plate was replicaplated onto LBPGS with erythromycin (2 microgram/ml), and the other plate replica plated onto LPPGS with chloramphenicol (6 microgram/ml). These plates were incubated at 30° C. overnight, then left at room temperature (20-25° C.) for further 3 days."}, "[4]": {"tested_on": "recipient strains containing intact, chromosomal chloramphenicol resistance genes", "assay": "Transconjugant selection on chloramphenicol plates", "details": "recipients with intact chromosomal cat (PP1897-3, ATCC14580); donor SJ8000; chloramphenicol 6 microgram/ml; 30° C. overnight", "experimental": "as §2, §3"}, "[5]": {"details": "1 μg/ml cam, after 7 hours incubation"}, "[6]": {"details": "1 μg/ml cam, after overnight incubation"}, "[7]": {"details": "2 μg/ml cam, after 7 hours incubation"}, "[8]": {"details": "2 μg/ml cam, after overnight incubation"}, "[9]": {"details": "3 μg/ml cam, after 7 hours incubation"}, "[10]": {"details": "3 μg/ml cam, after overnight incubation"}, "[11]": {"details": "6 μg/ml cam, after 7 hours incubation"}, "[12]": {"details": "6 μg/ml cam, after overnight incubation"}, "[13]": {"details": "9 μg/ml cam, after 7 hours incubation"}, "[14]": {"details": "9 μg/ml cam, after overnight incubation"}, "[15]": {"details": "12 μg/ml cam, after 7 hours incubation"}, "[16]": {"details": "12 μg/ml cam, after overnight incubation"}}, "data": [{"smiles": "O=C(N[C@H](CO)[C@H](O)c1ccc([N+](=O)[O-])cc1)C(Cl)Cl", "note": "[cam, chloramphenicol]", "values": [{"measurement": "Growth scored by visual inspection of turbidity", "setting": "ATCC14580; [5]", "result": "++"}, {"measurement": "Growth scored by visual inspection of turbidity", "setting": "ATCC14580; [6]", "result": "++"}, {"measurement": "Growth scored by visual inspection of turbidity", "setting": "ATCC14580; [7]", "result": "+"}, {"measurement": "Growth scored by visual inspection of turbidity", "setting": "ATCC14580; [8]", "result": "++"}, {"measurement": "Growth scored by visual inspection of turbidity", "setting": "ATCC14580; [9]", "result": "+"}, {"measurement": "Growth scored by visual inspection of turbidity", "setting": "ATCC14580; [10]", "result": "++"}, {"measurement": "Growth scored by visual inspection of turbidity", "setting": "ATCC14580; [11]", "result": "−"}, {"measurement": "Growth scored by visual inspection of turbidity", "setting": "ATCC14580; [12]", "result": "++"}, {"measurement": "Growth scored by visual inspection of turbidity", "setting": "ATCC14580; [13]", "result": "−"}, {"measurement": "Growth scored by visual inspection of turbidity", "setting": "ATCC14580; [14]", "result": "++"}, {"measurement": "Growth scored by visual inspection of turbidity", "setting": "ATCC14580; [15]", "result": "−"}, {"measurement": "Growth scored by visual inspection of turbidity", "setting": "ATCC14580; [16]", "result": "+"}, {"measurement": "Growth scored by visual inspection of turbidity", "setting": "PP1897-3; [5]", "result": "++"}, {"measurement": "Growth scored by visual inspection of turbidity", "setting": "PP1897-3; [6]", "result": "++"}, {"measurement": "Growth scored by visual inspection of turbidity", "setting": "PP1897-3; [7]", "result": "++"}, {"measurement": "Growth scored by visual inspection of turbidity", "setting": "PP1897-3; [8]", "result": "++"}, {"measurement": "Growth scored by visual inspection of turbidity", "setting": "PP1897-3; [9]", "result": "+"}, {"measurement": "Growth scored by visual inspection of turbidity", "setting": "PP1897-3; [10]", "result": "++"}, {"measurement": "Growth scored by visual inspection of turbidity", "setting": "PP1897-3; [11]", "result": "−"}, {"measurement": "Growth scored by visual inspection of turbidity", "setting": "PP1897-3; [12]", "result": "++"}, {"measurement": "Growth scored by visual inspection of turbidity", "setting": "PP1897-3; [13]", "result": "−"}, {"measurement": "Growth scored by visual inspection of turbidity", "setting": "PP1897-3; [14]", "result": "++"}, {"measurement": "Growth scored by visual inspection of turbidity", "setting": "PP1897-3; [15]", "result": "−"}, {"measurement": "Growth scored by visual inspection of turbidity", "setting": "PP1897-3; [16]", "result": "+"}, {"measurement": "Growth scored by visual inspection of turbidity", "setting": "[1]; [5]", "result": "+"}, {"measurement": "Growth scored by visual inspection of turbidity", "setting": "[1]; [6]", "result": "++"}, {"measurement": "Growth scored by visual inspection of turbidity", "setting": "[1]; [7]", "result": "−"}, {"measurement": "Growth scored by visual inspection of turbidity", "setting": "[1]; [8]", "result": "++"}, {"measurement": "Growth scored by visual inspection of turbidity", "setting": "[1]; [9]", "result": "−"}, {"measurement": "Growth scored by visual inspection of turbidity", "setting": "[1]; [10]", "result": "++"}, {"measurement": "Growth scored by visual inspection of turbidity", "setting": "[1]; [11]", "result": "−"}, {"measurement": "Growth scored by visual inspection of turbidity", "setting": "[1]; [12]", "result": "+"}, {"measurement": "Growth scored by visual inspection of turbidity", "setting": "[1]; [13]", "result": "−"}, {"measurement": "Growth scored by visual inspection of turbidity", "setting": "[1]; [14]", "result": "+"}, {"measurement": "Growth scored by visual inspection of turbidity", "setting": "[1]; [15]", "result": "−"}, {"measurement": "Growth scored by visual inspection of turbidity", "setting": "[1]; [16]", "result": "+"}, {"measurement": "Growth scored by visual inspection of turbidity", "setting": "[2]; [5]", "result": "+"}, {"measurement": "Growth scored by visual inspection of turbidity", "setting": "[2]; [6]", "result": "++"}, {"measurement": "Growth scored by visual inspection of turbidity", "setting": "[2]; [7]", "result": "−"}, {"measurement": "Growth scored by visual inspection of turbidity", "setting": "[2]; [8]", "result": "++"}, {"measurement": "Growth scored by visual inspection of turbidity", "setting": "[2]; [9]", "result": "−"}, {"measurement": "Growth scored by visual inspection of turbidity", "setting": "[2]; [10]", "result": "++"}, {"measurement": "Growth scored by visual inspection of turbidity", "setting": "[2]; [11]", "result": "−"}, {"measurement": "Growth scored by visual inspection of turbidity", "setting": "[2]; [12]", "result": "+"}, {"measurement": "Growth scored by visual inspection of turbidity", "setting": "[2]; [13]", "result": "−"}, {"measurement": "Growth scored by visual inspection of turbidity", "setting": "[2]; [14]", "result": "+"}, {"measurement": "Growth scored by visual inspection of turbidity", "setting": "[2]; [15]", "result": "−"}, {"measurement": "Growth scored by visual inspection of turbidity", "setting": "[2]; [16]", "result": "+"}, {"measurement": "Growth when reisolated onto plates", "setting": "SJ8071", "result": "absolutely no growth"}, {"measurement": "Growth when reisolated onto plates", "setting": "SJ8072", "result": "absolutely no growth"}, {"measurement": "Growth when reisolated onto plates", "setting": "control strain", "result": "some growth"}, {"measurement": "Transconjugant colonies using chloramphenicol selection", "setting": "[3]", "result": "Distinct transconjugant colonies"}, {"measurement": "Transconjugant colonies using chloramphenicol selection", "setting": "[4]", "result": "No distinct transconjugant colonies"}]}]}
